According to patent US20080075796A1, “Compositions and Methods for Controlling Insects” (TyraTech, Inc., priority 2003, published 2008):
Values joined by “and” are separate entries in the source; they are usually repeats but may differ in a detail not shown here. Equal entries are not always repeated.

Assays:
[1] = biological target: T1, Or43a receptor (Drosophila melanogaster, UniProt P81917, L154V); assay: biochemical; assay type: binding
T1 construct: His (from vector pAc5.1/V5-His B) (C); expressed in transfected cells
T1 sequence (P81917 whole entry L154V): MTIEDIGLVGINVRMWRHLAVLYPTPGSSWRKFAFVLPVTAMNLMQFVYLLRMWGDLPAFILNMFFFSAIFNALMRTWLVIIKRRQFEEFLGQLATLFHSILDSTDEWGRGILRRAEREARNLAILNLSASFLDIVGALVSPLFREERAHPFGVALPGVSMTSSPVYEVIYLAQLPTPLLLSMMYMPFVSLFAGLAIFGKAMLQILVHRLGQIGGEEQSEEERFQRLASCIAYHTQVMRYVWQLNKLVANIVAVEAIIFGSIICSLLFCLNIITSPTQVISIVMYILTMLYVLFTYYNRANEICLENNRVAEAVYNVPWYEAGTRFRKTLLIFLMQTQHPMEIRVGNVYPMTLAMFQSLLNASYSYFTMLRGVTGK
Method: To address whether Or83b receptor and Or43a receptor contain a specific binding site for tyramine, membranes expressing Or83b receptor or Or43a receptor are prepared from cells expressing either receptor, as described above, and used for competitive binding with ^3H-tyramine. The binding assay protocol is exactly as described for cells expressing TyrR, as described above.

[2] = biological target: T2, Or83b receptor (Drosophila melanogaster, UniProt Q9VNB5); assay: Intracellular Ca^2+ mobilization in Schneider cells expressing Or83b receptor; assay type: cell-based; details: ionomycin about 2 μM, tyramine about 10 μM
T2 construct: His (from vector pAc5.1/V5-His B) (C); expressed in transfected cells
T2 sequence (Q9VNB5 1-486): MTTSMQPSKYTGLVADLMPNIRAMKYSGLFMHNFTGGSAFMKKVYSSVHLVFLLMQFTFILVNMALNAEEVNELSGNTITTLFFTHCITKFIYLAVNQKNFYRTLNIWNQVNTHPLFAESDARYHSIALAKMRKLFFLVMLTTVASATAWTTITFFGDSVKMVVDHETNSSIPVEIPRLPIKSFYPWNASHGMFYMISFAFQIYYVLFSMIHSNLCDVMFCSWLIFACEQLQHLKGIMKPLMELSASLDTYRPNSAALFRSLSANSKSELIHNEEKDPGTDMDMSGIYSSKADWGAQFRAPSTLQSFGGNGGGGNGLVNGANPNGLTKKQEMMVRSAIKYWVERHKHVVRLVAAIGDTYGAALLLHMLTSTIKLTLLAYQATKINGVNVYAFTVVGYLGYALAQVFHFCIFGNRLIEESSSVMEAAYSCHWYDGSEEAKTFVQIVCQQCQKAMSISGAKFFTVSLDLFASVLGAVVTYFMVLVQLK
Method: (§1) Intracellular calcium ion concentrations ([Ca^2+]i) are measured by using the acetoxymethyl (AM) ester of the fluorescent indicator fura-2 (Enan, et al., Biochem. Pharmacol vol 51, 447-454). In this study, cells expressing tyramine receptor are grown under standard conditions. A cell suspension is prepared in assay buffer (140 mM NaCL, 10 mM HEPES, 10 mM glucose, 5 mM KCl, 1 mM CaCl2, 1 mM MgCl2) and cell number adjusted to about 2×10^6 cells per ml. Briefly, about 1.0 ml cell suspension (about 2×10^6 cells) is incubated with about 5 μM Fura 2/AM for about 30 min at about 28° C. After incubation, the cells are pelleted at about 3700 rpm for about 10 sec at room temperature and then resuspended in about 1.5 ml assay buffer. [Ca^2+]i changes are analyzed in spectrofluorometer in the presence and absence of test chemicals. Excitation wave lengths are about 340 nm (generated by Ca^2+-bound fura-2) and about 380 nm (corresponding to Ca^2+-free fura-2). The fluorescence intensity is monitored at an emission wave length of about 510 nm. No absorbance of fluorescence artifacts are observed with any of the compounds used. The ratio of about 340/380 nm is calculated and plotted as a function of time.
(§2) Intracellular Ca^2+ levels are measured using the method described above in Example 3.

[3] = biological target: T1, Or43a receptor; assay: Intracellular Ca^2+ mobilization in Schneider cells expressing Or43a receptor; assay type: cell-based
Method: as §1, §2
Changes in intracellular Ca^2+ levels are calculated based on the difference between the 340/380 fluorescence ratios before and after approximately 150 seconds of the treatment.

[4] = biological target: T3, tyramine receptor (TyrR) (Drosophila melanogaster, UniProt P22270); details: displacement of about 2 nM ^3H-tyramine
T3 sequence (P22270 27-601): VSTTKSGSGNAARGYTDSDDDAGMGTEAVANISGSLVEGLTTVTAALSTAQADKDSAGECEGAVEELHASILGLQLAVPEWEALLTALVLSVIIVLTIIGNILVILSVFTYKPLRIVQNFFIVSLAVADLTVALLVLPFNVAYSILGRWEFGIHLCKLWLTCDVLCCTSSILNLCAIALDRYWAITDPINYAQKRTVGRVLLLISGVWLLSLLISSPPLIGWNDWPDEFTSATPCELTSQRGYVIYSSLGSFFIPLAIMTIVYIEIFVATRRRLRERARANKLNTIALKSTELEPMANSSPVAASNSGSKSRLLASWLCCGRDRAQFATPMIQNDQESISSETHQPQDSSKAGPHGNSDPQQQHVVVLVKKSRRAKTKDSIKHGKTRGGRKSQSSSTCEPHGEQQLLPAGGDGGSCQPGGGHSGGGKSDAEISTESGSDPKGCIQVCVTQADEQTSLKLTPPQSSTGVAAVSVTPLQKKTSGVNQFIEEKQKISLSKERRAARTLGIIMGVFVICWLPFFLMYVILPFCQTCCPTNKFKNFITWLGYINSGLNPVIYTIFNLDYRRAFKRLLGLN
Method: A preliminary study to determine the optimum concentration of membrane protein for receptor binding activity is performed. […] After about 1 hr incubation at room temperature, reactions are terminated by filtration through GF/C filters (VWR), which have been previously soaked in about 0.3% polyethyleneimine (PEI). The filters are washed one time with about 4 ml ice cold Iris buffer and air dried before the retained radioactivity is measured using LSC. Binding data is analyzed by curve fitting (GraphPad software, Prism).
Receptor binding reactions are incubated for about 1 hr at room temperature (RT) in restricted light. Reactions are terminated by filtration through OF/C filters (VWR), which have been previously soaked in about 0.3% polyethyleneimine (PEI). The filters are washed one time with about 4 ml ice cold Tris buffer and air dried before retained radioactivity is measured using LSC. Binding data is analyzed by curve fitting (GraphPad software, Prism).

`NCCc1ccc(O)cc1` [tyramine] was tested, and the Kd [1] was roughly 13.5 nM, the Ki [1] was 13.5 nM and the “increase in intracellular calcium” value [2] was roughly 1.18 fold. The “change in intracellular Ca^2+ levels (340/380 fluorescence ratio)” value ([3]; before vs approximately 150 seconds after treatment) was “only negligibly”, the “increase in intracellular calcium” value ([3]; ionomycin about 2 μM, tyramine about 10 μM) was roughly 3.5 fold and the EC50 ([4]; EC50 (concentration at which binding is inhibited by 50%)) was ~305 nM and 305 nM. For the same molecule, the Ki ([4]; Ki) was ~127 nM and 127 nM.
